Broadly, the IC50 is the concentration that inhibits the measured activity by half.

Consider 34 molecules from patent US8674113B2, “Compounds” (Boehringer Ingelheim International GmbH, priority 2010, dated 2014).

The structures appear in SMILES notation.

Test [1] deals with recombinant human mPGES-1 (Homo sapiens (Human), UniProt O14684). The test can be described thus: mPGES-1 enzyme assay (HTRF detection of PGE2). The format is biochemical. The note with it: recombinant human mPGES-1 microsomes, PGH2 2 μM, 60 seconds; read-out: mPGES-1 inhibitory effect IC50 in the enzyme assay. In short, it runs like this:
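Microsomes from E. coli expressing recombinant human mPGES-1 (~0.5 μg protein/well) in 0.1 M phosphate pH 7.4 with 2.5 mM GSH, pre-incubated with compound 25 min at room temperature. PGH2 (2 μM final) added, reaction stopped with FeCl2 after 60 s; PGE2 quantified by HTRF (665/620 ratio) against a calibration curve, IC50 by nonlinear regression after background subtraction.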
In general terms: In TR-FRET formats the signal depends on donor and acceptor labels being close together.

Test [2] has as its target mPGES-1 in A549 cells (Homo sapiens (Human), UniProt O14684). The test can be described thus: A549 cell-based assay (PGE2 formation, 50% human serum). The note with it: IL-1β 5 ng/ml, 10 nM arachidonic acid, 20-24 h, read-out: mPGES-1 inhibitory effect IC50 in the cell assay. In short, it runs like this: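 A549 cells in F-12K with 50% human serum were stimulated 20-24 h with 5 ng/ml IL-1β and 10 nM arachidonic acid in presence of compound or vehicle. PGE2 in the cell-free medium was measured by HTRF, normalised to vehicle (100%). IC50 from 6-8 point titrations.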

mPGES-1 in A549 cells, sequence (O14684 whole entry): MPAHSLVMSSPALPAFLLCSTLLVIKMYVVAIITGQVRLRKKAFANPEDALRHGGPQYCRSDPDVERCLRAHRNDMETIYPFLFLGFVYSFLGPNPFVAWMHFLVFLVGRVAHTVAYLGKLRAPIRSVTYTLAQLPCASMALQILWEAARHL
recombinant human mPGES-1, sequence (O14684 whole entry): as above

Turning to `CC(O)CN(C)c1cc2c(cc1C(=O)N[C@H]1CC[C@H](C(F)(F)F)CC1)nc(Nc1c(Cl)ccc(CNC(=O)C(C)(C)C)c1Cl)n2C` (some centres unmarked) [Example 106], the IC50 in test [1] was 2 nM; in test [2], less than 1 nM.
The like results for `Cn1c(Nc2c(Cl)ccc(CNC(=O)C(C)(C)F)c2Cl)nc2cc(C(=O)NCCC(F)(F)F)c(N3CCCC(C(F)(F)F)C3)cc21` (centres unmarked) [Example 150] were, in that order, 2 nM and 2 nM.
The like results for `Cn1c(Nc2c(Cl)ccc(CNC(=O)C(C)(C)C)c2Cl)nc2cc(C(=O)Nc3ccc(Cl)c(F)c3)c(N3CCC(C(F)(F)F)CC3)cc21` [Example 56] were, in that order, 1 nM and less than 1 nM.
Taken in the same sequence, the figures for `Cn1c(Nc2c(Cl)ccc(CNC(=O)C(C)(C)C)c2Cl)nc2cc(C(=O)N[C@H]3CC[C@H](C(F)(F)F)CC3)c(N3CC(F)(F)C3)cc21` [Example 21] were 4 nM and 2.5 nM.
`Cn1c(Nc2c(Cl)ccc(CNC(=O)C(C)(C)F)c2Cl)nc2cc(C(=O)Nc3cccc(C(F)(F)F)n3)c(N3CCC(C(F)(F)F)CC3)cc21` [Example 242]: the results for the IC50 in test [1] and in test [2] were 1.7 nM and 5 nM, respectively.
Taken in the same sequence, the figures for `CC(C)(O)Cn1c(Nc2c(Cl)ccc(CNC(=O)C(C)(C)C)c2Cl)nc2cc(C(=O)Nc3ccc(OC(F)(F)F)cc3)c(N3CCOCC3)cc21` [Example 166, N-(4-Trifluoromethoxy-phenyl)-2-{2,6-dichloro-3-[(2,2-dimethyl-propionylamino)-methyl]-phenylamino}-6-[morpholinyl]-1-(2-hydroxy-2-methyl-propyl)-1H-benzimidazole-5-carboxylic acid amide] were 2 nM and 12 nM.
The like results for `Cn1c(Nc2c(Cl)ccc(CNC(=O)C(C)(C)C)c2Cl)nc2cc(C(=O)NC(Cc3ccccc3)C(F)(F)F)c(N3CCC(F)(F)C3)cc21` (centres unmarked) [Example 48] were, in that order, 2 nM and 8 nM.
Taken in the same sequence, the figures for `Cn1c(Nc2c(Cl)ccc(CNC(=O)C(C)(C)F)c2Cl)nc2cc(C(=O)Nc3ccc(OC(F)(F)F)cc3)c(N3CC[C@@H](F)C3)cc21` [Example 239] were 3.5 nM and 5 nM.
In the case of `Cn1c(Nc2c(Cl)ccc(CNC(=O)C(C)(C)C)c2Cl)nc2cc(C(=O)N[C@H]3CC[C@H](C(F)(F)F)CC3)c(N3CC4CC4C3)cc21` (some centres unmarked) [Example 22], the IC50 in test [1] is 5 nM; in test [2] it was 1.5 nM.
The like results for `Cn1c(Nc2c(Cl)ccc(CNC(=O)C(C)(C)C(F)(F)F)c2Cl)nc2cc(C(=O)Nc3ccc(F)c(Cl)c3)c(N3CCC(C(F)(F)F)CC3)cc21` [Example 232] were, in that order, 1.7 nM and 1.4 nM.
Turning to `Cn1c(Nc2c(Cl)ccc(CNC(=O)C(C)(C)C)c2Cl)nc2cc(C(=O)NC(c3ccccn3)C(F)(F)F)c(N3CCC(F)(F)C3)cc21` (centres unmarked) [Example 38], the IC50 in test [1] stood at 4 nM; in test [2], 6 nM.
Taken in the same sequence, the figures for `Cn1c(Nc2c(Cl)ccc(CNC(=O)C(C)(C)C)c2Cl)nc2cc(C(=O)Nc3ccc(F)c(Cl)c3)c(NC3CC(F)(F)C3)cc21` [Example 15] were 4 nM and 23 nM.
The like results for `Cn1c(Nc2c(Cl)ccc(CNC(=O)C(C)(C)C)c2Cl)nc2cc(C(=O)N[C@H]3CC[C@H](C(F)(F)F)CC3)c(NC3CC(F)(F)C3)cc21` [Example 4, N-(trans-4-Trifluoromethyl-cyclohexyl)-2-{2,6-dichloro-3-[(2,2-dimethyl-propionylamino)-methyl]-phenylamino}-6-[3,3-difluoro-cyclobutylamino]-1-methyl-1H-benzimidazole-5-carboxylic acid amide] were, in that order, 5 nM and 20 nM.
As to `CN(c1cc2c(cc1C(=O)NCC(F)(F)F)nc(Nc1c(Cl)ccc(CNC(=O)C(C)(C)C)c1Cl)n2C)C1CCCC1` [Example 27], the IC50 in test [1] and in test [2] was 2 nM each time.
Turning to `Cn1c(Nc2c(Cl)ccc(CNC(=O)C(C)(C)C)c2Cl)nc2cc(C(=O)N[C@H]3CC[C@H](C(F)(F)F)CC3)c(N3CC[C@@H](F)C3)c(F)c21` [Example 145, (R)—N-(trans-4-Trifluoromethyl-cyclohexyl)-2-{2,6-dichloro-3-[(2,2-dimethyl-propionylamino)-methyl]-phenylamino}-6-[3-fluoro-pyrrolidinyl]-1-methyl-7-fluoro-1H-benzimidazole-5-carboxylic acid amide], the concentration for half-maximal inhibition (IC50) is 3 nM in test [1] and 2.5 nM in test [2].
Taken in the same sequence, the figures for `COC1CN(c2cc3c(cc2C(=O)N[C@H]2CC[C@H](C(F)(F)F)CC2)nc(Nc2c(Cl)ccc(CNC(=O)C(C)(C)C)c2Cl)n3C)C1` [Example 98] were 5 nM and 5 nM.
The like results for `Cn1c(Nc2c(Cl)ccc(CNC(=O)C(C)(C)C)c2Cl)nc2cc(C(=O)N[C@H]3CC[C@H](C(F)(F)F)CC3)c(N3CC(OC(F)F)C3)cc21` [Example 99] were, in that order, 1 nM and 5 nM.
Taken in the same sequence, the figures for `Cn1c(Nc2c(Cl)ccc(CNC(=O)c3ccc(O)cc3F)c2Cl)nc2cc(C(=O)NCCC(F)(F)F)c(N3CCC(C(F)(F)F)CC3)cc21` [Example 173] were 2 nM and 2 nM.
Consider `CN(CCC(F)(F)F)c1cc2c(cc1C(=O)NCC(F)(F)F)nc(Nc1c(Cl)ccc(CNC(=O)C(C)(C)C)c1Cl)n2C` [Example 34], for which the IC50 stood at 3 nM in test [1] and 1 nM in test [2].
Taken in the same sequence, the figures for `Cn1c(Nc2c(Cl)ccc(CNC(=O)C(C)(C)C)c2Cl)nc2cc(C(=O)NC3CCC(F)(F)CC3)c(N3CCC(C(F)(F)F)CC3)cc21` [Example 60] were 1 nM and 1 nM.
Regarding `Cn1c(Nc2c(Cl)ccc(CNC(=O)C(C)(C)C)c2Cl)nc2cc(C(=O)N[C@H]3CC[C@H](C(F)(F)F)CC3)c(N3C[C@H]4C[C@@H](C3)[C@H]4O)cc21` [Example 126], the values for the IC50 in test [1] and in test [2] were 2 nM and 1 nM, respectively.
The like results for `Cn1c(Nc2c(Cl)ccc(CNC(=O)[C@@](C)(O)C(F)(F)F)c2Cl)nc2cc(C(=O)Nc3cccc(C(F)(F)F)n3)c(N3CCC(C(F)(F)F)CC3)cc21` [Example 243] were, in that order, 2.9 nM and 4.5 nM.
The like results for `CC(C)(C)C(=O)NCc1ccc(Cl)c(Nc2nc3cc(C(=O)NCC(F)(F)C(F)(F)F)c(N4CCC(C(F)(F)F)CC4)cc3n2CC(F)F)c1Cl` [Example 76] were, in that order, 1 nM and 1 nM.
As for `CC(C)(F)C(=O)NCc1ccc(Cl)c(Nc2nc3cc(C(=O)N[C@H]4CC[C@H](C(F)(F)F)CC4)c(N4CCC(O)(C(F)(F)F)CC4)cc3n2CC(F)F)c1Cl` [Example 80], the IC50 in test [1] worked out at 2 nM; in test [2], 1 nM.
For the molecule `Cn1c(Nc2c(Cl)ccc(CNC(=O)C(C)(C)C)c2Cl)nc2cc(C(=O)NCC(F)(F)F)c(Nc3ccc(F)c(Cl)c3)cc21` [Example 30], the results for the IC50 in test [1] and in test [2] were 5 nM and 144 nM, respectively.
Taken in the same sequence, the figures for `Cn1c(Nc2c(Cl)ccc(CNC(=O)C(C)(C)C(F)(F)F)c2Cl)nc2cc(C(=O)Nc3ccc(OC(F)(F)F)cc3)c(N3CC[C@@H](F)C3)cc21` [Example 240] were 4.9 nM and 2 nM.
As for `CN(c1cc2c(cc1C(=O)N[C@H]1CC[C@H](C(F)(F)F)CC1)nc(Nc1c(Cl)ccc(CNC(=O)C(C)(C)C)c1Cl)n2C)C1CC[S+]([O-])C1` (stereo partly drawn) [Example 118, N-(trans-4-Trifluoromethyl-cyclohexyl)-2-{2,6-dichloro-3-[(2,2-dimethyl-propionylamino)-methyl]-phenylamino}-6-[N-methyl-N-(1-oxo-tetrahydro-thiophen-3-yl)-amino]-1-methyl-1H-benzimidazole-5-carboxylic acid amide], the results for the IC50 in test [1] and in test [2] were 3 nM and 10 nM, respectively.
On to `Cn1c(Nc2c(Cl)ccc(CNC(=O)C(C)(C)C)c2Cl)nc2cc(C(=O)N[C@H]3CC[C@H](C(F)(F)F)CC3)c(N3CCC(C(F)(F)F)C3)cc21` (some centres unmarked) [Example 100], for which the concentration for half-maximal inhibition (IC50) in test [1] amounted to 3 nM; in test [2], 1 nM.
Take `Cn1c(Nc2c(Cl)ccc(CNC(=O)[C@](C)(O)C(F)(F)F)c2Cl)nc2cc(C(=O)Nc3cccc(C(F)(F)F)n3)c(N3CCC(C(F)(F)F)CC3)cc21` [Example 244]: the figures for the IC50 in test [1] and in test [2] were 4.2 nM and 27 nM, respectively.
As for `Cn1c(Nc2c(Cl)ccc(CNC(=O)C(C)(C)C)c2F)nc2cc(C(=O)Nc3ccc(OC(F)(F)F)cc3)c(N3CC[C@@H](F)C3)cc21` [Example 138], the IC50 was found to be 2 nM in test [1] and 3 nM in test [2].
The like results for `Cn1c(Nc2c(Cl)ccc(CNC(=O)C(C)(C)C)c2Cl)nc2cc(C(=O)NCC(F)(F)F)c(N3CCC(F)(F)C3)cc21` [Example 26, N-(2,2,2-Trifluoroethyl)-2-{2,6-dichloro-3-[(2,2-dimethyl-propionylamino)-methyl]-phenylamino}-6-[3,3-difluoro-pyrrolidinyl]-1-methyl-1H-benzimidazole-5-carboxylic acid amide] were, in that order, 3 nM and 3.6 nM.
Taken in the same sequence, the figures for `Cn1c(Nc2c(Cl)ccc(CNC(=O)C(C)(C)C)c2Cl)nc2cc(C(=O)Nc3cccc(C(F)(F)F)n3)c(N3CCC(F)(F)C3)cc21` [Example 47] were 2 nM and 1 nM.
In the case of `Cn1c(Nc2c(Cl)ccc(CNC(=O)C(C)(C)C)c2Cl)nc2cc(C(=O)N[C@H]3CC[C@H](C(F)(F)F)CC3)c(N3CCS(=O)(=O)CC3)cc21` [Example 130], the IC50 in test [1] was found to be 2 nM; in test [2] it was 7 nM.
Consider `Cn1c(Nc2c(F)ccc(CNC(=O)C(C)(C)C)c2F)nc2cc(C(=O)N[C@H]3CC[C@H](C(F)(F)F)CC3)c(N3CCC(F)CC3)cc21` [Example 12], for which the concentration for half-maximal inhibition (IC50) in test [1] and in test [2] was 3 nM throughout.
